Settings: pH 7.4

Compound	logD
CC(C)CC(O)C(CC1CCCCC1)NC(=O)C(Cn1ccnc1)NC(=O)C(CC(=O)N1CCOCC1)Cc1ccccc1 (stereo not given)	3.79
CC(C)CC(O)C(O)C(CC1CCCCC1)NC(=O)C(Cc1cscn1)NC(=O)C(CC(=O)CN1CCCOCC1)Cc1ccccc1 (stereo not given)	3.91
COc1ccc(CC(CC(=O)N2CCN(C)CC2)C(=O)NC(Cc2cscn2)C(=O)NC(CC2CCCCC2)C(O)C(O)CC(C)C)cc1 (stereo not given)	3.38
CC(C)CC(O)C(O)C(CC1CCCCC1)NC(=O)C(NC(=O)C(CC(=O)N1CCN(C)CC1)Cc1ccccc1)c1c[nH]cn1 (stereo not given)	1.66
CC(C)CC(O)C(CC1CCCCC1)NC(=O)C(Cc1cn(C)cn1)NC(=O)C(CC(=O)N1CCOCC1)Cc1ccccc1 (stereo not given)	3.71
CC(C)CC(O)C(O)C(CC1CCCCC1)NC(=O)C(NC(=O)C(CC(=O)N1CCN(C)CC1)Cc1ccccc1)c1cc[nH]n1 (stereo not given)	4.02

Continued, values first:

logD	Compound
4.27	CC(C)CC(O)C(CC1CCCCC1)NC(=O)C(Cc1cscn1)NC(=O)C(CC(=O)N1CCOCC1)Cc1ccccc1 (stereo not given)
4.1	CC(C)CC(O)C(CC1CCCCC1)NC(=O)C(CN=[N+]=[N-])NC(=O)C(CC(=O)N1CCCOCC1)Cc1ccccc1 (stereo not given)
4.01	CC(C)CC(O)C(CC1CCCCC1)NC(=O)C(Cc1cc[nH]n1)NC(=O)C(CC(=O)N1CCCOCC1)Cc1ccccc1 (stereo not given)
3.51	CC(C)CC(O)C(CC1CCCCC1)NC(=O)C(Cc1c[nH]cn1)NC(=O)C(CC(=O)N1CCOCC1)Cc1ccccc1 (stereo not given)

From the SangsterLogP compilation
